Values of other authors in article PMC7770833, “Design, Synthesis, and Biological Evaluation of a Series of Oxazolone Carboxamides as a Novel Class of Acid Ceramidase Inhibitors” (Journal of Medicinal Chemistry, 2020).
Where two headings read alike, the source gives them in different places.

Key:
[1] = target: human ceramidase (hCDase); conditions: in SKOV3 cells; cited from earlier work
AC [2] = conditions: HaCaT cell lysates; cited from earlier work
AC [3] = conditions: HL-60 cell lysates; cited from earlier work

COc1ccc(/C=C/C(=O)c2c(-c3ccccc3)c3cc(C)ccc3[nH]c2=O)cc1 [Ceranib-1]
IC50 [1]: 55 µM

CCCCCCCCCCCCCC(=O)N[C@H](CO)[C@H](O)c1ccc([N+](=O)[O-])cc1 [Compound B13]
IC50 (AC [2]): ~10 µM

CCCCCCCCCCCCCC(=O)N[C@H](C)[C@@H](O)c1ccccc1 [D-e-MAPP, D-erithro-2-(N-myristoylamino)-1-phenyl-1-propanol]
IC50 (AC [3]): > 500 µM
